Measurements published in patent US20250090540A1, “PI3K-ALPHA INHIBITORS AND METHODS OF USE THEREOF” (Relay Therapeutics, Inc., priority 2021, published 2025).

Biological target: H1047R PIK3CA enzyme (Homo sapiens, UniProt P42336, H1047R)
Assay: ADP-Glo Biochemical PIK3CA Kinase Assay
Details: not given
Method: Compounds to be assayed were plated in 16 doses of 1:2 serial dilutions (20 nL volume each well) on a 1536-well plate, and the plate warmed to room temperature. PIK3CA enzyme (e.g. H1047R, E542K, E545K, or wild-type) (1 μL of 2 nM solution in Enzyme Assay Buffer (comprising 50 mM HEPES pH 7.4, 50 mM NaCl, 6 mM MgCl2, 5 mM DTT and 0.03% CHAPS)) was added and shaken for 10 seconds and preincubated for 30 minutes. To the well was added 1 μL of 200 μM ATP and 20 μM of diC8-PIP2 in Substrate Assay Buffer (50 mM HEPES pH7.4, 50 mM NaCl, 5 mM DTT and 0.03% CHAPS) to start the reaction, and the plate was shaken for 10 seconds, then spun briefly at 1500 rpm, and then incubated for 60 minutes at room temperature. The reaction was stopped by adding 2 μL of ADP-Glo reagent (Promega), and spinning briefly at 1500 rpm, and then incubating for 40 minutes. ADP-Glo Detection reagent (Promega) was added and the plate spun briefly at 1500 rpm, then incubated for 30 minutes.

Chain of H1047R PIK3CA enzyme (P42336 whole entry H1047R): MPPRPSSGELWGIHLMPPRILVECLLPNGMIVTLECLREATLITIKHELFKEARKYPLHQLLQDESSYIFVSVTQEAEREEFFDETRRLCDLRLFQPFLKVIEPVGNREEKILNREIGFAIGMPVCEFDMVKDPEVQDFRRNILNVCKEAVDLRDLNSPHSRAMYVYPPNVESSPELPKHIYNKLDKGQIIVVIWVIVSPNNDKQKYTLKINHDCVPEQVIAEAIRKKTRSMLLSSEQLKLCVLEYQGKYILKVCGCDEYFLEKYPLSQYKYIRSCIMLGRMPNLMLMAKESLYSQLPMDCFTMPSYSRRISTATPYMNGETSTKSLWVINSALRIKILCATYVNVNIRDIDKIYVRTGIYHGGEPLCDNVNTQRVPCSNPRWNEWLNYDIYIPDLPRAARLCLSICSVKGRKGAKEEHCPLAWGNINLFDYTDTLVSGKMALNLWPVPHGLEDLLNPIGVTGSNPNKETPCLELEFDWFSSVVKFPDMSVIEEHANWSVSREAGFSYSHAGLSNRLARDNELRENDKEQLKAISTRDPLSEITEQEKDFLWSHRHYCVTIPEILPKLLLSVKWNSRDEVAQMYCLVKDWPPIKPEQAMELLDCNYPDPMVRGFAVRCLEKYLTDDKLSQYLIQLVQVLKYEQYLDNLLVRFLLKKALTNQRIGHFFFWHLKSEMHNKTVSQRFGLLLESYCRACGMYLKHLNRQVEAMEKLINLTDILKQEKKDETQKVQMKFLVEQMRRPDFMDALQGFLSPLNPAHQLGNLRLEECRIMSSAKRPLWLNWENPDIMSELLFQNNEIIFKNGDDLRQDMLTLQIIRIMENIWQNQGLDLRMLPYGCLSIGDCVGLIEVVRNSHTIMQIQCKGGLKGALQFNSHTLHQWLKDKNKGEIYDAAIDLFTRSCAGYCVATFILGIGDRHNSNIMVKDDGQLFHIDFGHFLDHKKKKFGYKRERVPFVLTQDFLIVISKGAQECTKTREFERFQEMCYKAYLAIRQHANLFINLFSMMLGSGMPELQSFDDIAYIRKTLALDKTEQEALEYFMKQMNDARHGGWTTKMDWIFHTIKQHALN
Chain of H1047R PIK3CA enzyme (P27986 whole entry partner): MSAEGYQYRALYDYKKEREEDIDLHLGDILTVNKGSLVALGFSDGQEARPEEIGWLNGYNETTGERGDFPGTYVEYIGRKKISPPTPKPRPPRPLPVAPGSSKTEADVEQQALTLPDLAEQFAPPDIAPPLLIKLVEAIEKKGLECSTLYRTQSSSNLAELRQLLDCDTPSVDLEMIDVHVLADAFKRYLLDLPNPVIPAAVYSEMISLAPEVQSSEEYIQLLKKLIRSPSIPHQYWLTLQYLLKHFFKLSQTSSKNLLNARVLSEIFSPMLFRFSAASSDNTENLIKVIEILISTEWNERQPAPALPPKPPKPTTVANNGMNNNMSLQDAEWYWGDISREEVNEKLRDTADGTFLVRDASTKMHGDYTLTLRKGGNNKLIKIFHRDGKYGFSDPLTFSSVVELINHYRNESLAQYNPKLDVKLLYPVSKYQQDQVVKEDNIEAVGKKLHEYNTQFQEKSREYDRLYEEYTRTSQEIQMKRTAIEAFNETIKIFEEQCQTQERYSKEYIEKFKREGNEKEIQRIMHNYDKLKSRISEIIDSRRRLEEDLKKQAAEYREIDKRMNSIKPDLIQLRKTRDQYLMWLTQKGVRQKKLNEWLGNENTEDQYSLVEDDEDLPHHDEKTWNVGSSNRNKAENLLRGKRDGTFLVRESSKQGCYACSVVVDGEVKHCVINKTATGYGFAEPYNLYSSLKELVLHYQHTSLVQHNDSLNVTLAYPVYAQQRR

Compound	IC50 [µM]
Cc1ccccc1Nc1ncc(NC(=O)CC#N)cc1NC(=O)c1cc(F)cc(C(F)(F)F)c1 [I-154]	1 to 10
O=C(Nc1cc(C(=O)NC2CC(F)(F)C2)cnc1N1C(=O)NCc2ccccc21)c1cc(F)cc(C(F)(F)F)c1 [I-338]	1 to 10
Cc1ccccc1Nc1ncc(-c2c(C)noc2C)cc1NC(=O)c1cc(F)cc(C(F)(F)F)c1 [I-78]	0.5 to 1
COCCNc1ncccc1NC(=O)c1csc2ccccc12 [I-134]	10 to 100
Cc1ccccc1Nc1ncc(-c2cnn(C)c2)cc1NC(=O)c1ccccc1C(F)(F)F [I-107]	10 to 100
CNC(=O)c1cnc(-n2c(=O)ccc3ccccc32)c(NC(=O)c2cc(F)cc(C(F)(F)F)c2)c1 [I-822]	10 to 100
CNC(=O)c1cnc(Nc2ccccc2C)c(NC(=O)c2cc(F)c3[nH]ncc3c2)c1 [I-393]	10 to 100
Cc1ccccc1Nc1ncc(C(=O)N2CCCC2)cc1NC(=O)c1cc(F)cc(C(F)(F)F)c1 [I-15]	10 to 100
CNC(=O)c1cnc(Nc2ccccc2C)c(NS(=O)(=O)c2cn(C)nc2C)c1 [I-55]	10 to 100
CNC(=O)c1cnc(Nc2ccccc2C)c(NC(=O)Cc2cc(C)cc(F)c2)c1 [I-373]	10 to 100
Cc1ccccc1Nc1ncc(-c2cnn(C)c2)cc1NC(=O)c1cccc2cccnc12 [I-125]	10 to 100
Cc1ccc(Nc2ncc(C(=O)NCc3ccnn3C)cc2NC(=O)c2csc3ccccc23)cc1 [I-261]	1 to 10
CNC(=O)c1cnc(Nc2ccccc2C)c(NC(=O)c2cccc(C(F)(F)F)n2)c1 [I-376]	10 to 100
CNC(=O)c1cnc(Nc2ccccc2C)c(NC(=O)[C@@H]2C[C@H]2c2ccccc2)c1 [I-165]	10 to 100
CNC(=O)c1cnc(Nc2ccccc2C)c(NC(=O)Cc2c(C)nc(N)[nH]c2=O)c1 [I-26]	10 to 100
Cc1ccccc1Nc1ncc(C(=O)Nc2cc[nH]c(=O)n2)cc1NC(=O)c1csc2ccccc12 [I-194]	0.5 to 1
Cc1ccccc1Nc1ncc(-c2cccnc2)cc1NC(=O)c1cc(F)cc(C(F)(F)F)c1 [I-77]	1 to 10
CNC(=O)c1cnc(N2CCc3ccccc32)c(NC(=O)c2cc(F)cc(C(F)(F)F)c2)c1 [I-37]	10 to 100
Cc1ccccc1Nc1ncc(C(=O)NCCO)cc1NC(=O)c1cc(F)cc(C(F)(F)F)c1 [I-86]	0.5 to 1
Cc1ccccc1Nc1ncc(NCC#N)cc1NC(=O)c1cc(F)cc(C(F)(F)F)c1 [I-155]	0.5 to 1
CC(=O)Nc1ccc(C(=O)Nc2cc(-c3cnn(C)c3)cnc2Nc2ccccc2C)cc1 [I-114]	10 to 100
CNC(=O)c1cnc(Nc2ncccc2C)c(NC(=O)c2cc(F)cc(C(F)(F)F)c2)c1 [I-269]	1 to 10
Cc1ccccc1Nc1ncc(-c2cnn(C)c2)cc1NC(=O)c1cccc2ccccc12 [I-113]	10 to 100
Cc1ccccc1Nc1cnccc1NC(=O)c1csc2ccccc12 [I-221]	1 to 10

Compound	IC50 [µM]
Cc1ccccc1Nc1ncc(-c2cnn(C3CCN(C(=O)OC(C)(C)C)CC3)c2)cc1NC(=O)c1cc(F)cc(C(F)(F)F)c1 [I-90]	1 to 10
O=C(Nc1cc(-c2ccc3ncnn3c2)cnc1Nc1cc(CO)ccc1Cl)c1cc(F)cc(C(F)(F)F)c1 [I-811]	10 to 100
Cc1ccc(C(=O)Nc2cc(-c3cnn(C)c3)cnc2Nc2ccccc2C)cc1 [I-109]	10 to 100
CNC(=O)c1cnc(Nc2ccccc2C)c(NC(=O)c2cn3c(Cl)cccc3n2)c1 [I-377]	10 to 100
CNC(=O)c1cnc(N)c(NC(=O)c2cc(F)cc(C(F)(F)F)c2)c1 [I-204]	10 to 100
O=C(Nc1cccnc1NCc1ccccc1)c1csc2ccccc12 [I-133]	10 to 100
CNC(=O)c1cnc(Nc2ccccc2C)c(NC(=O)c2nn(C)c3ccccc23)c1 [I-158]	10 to 100
Cc1ccccc1Nc1ncc(C2=CCNCC2)cc1NC(=O)c1cc(F)cc(C(F)(F)F)c1 [I-16]	10 to 100
COC(=O)c1cnc(Nc2ccc(C)cc2)c(NC(=O)c2csc3ccccc23)c1 [I-206]	10 to 100
Cc1ccccc1Nc1cc(=O)n(C)cc1NC(=O)c1csc2ccccc12 [I-280]	1 to 10
Cc1ccccc1Nc1ncc(C#N)cc1NC(=O)c1cc(F)cc(C(F)(F)F)c1 [I-49]	1 to 10
Cc1ccccc1Nc1ncc(N2CCNCC2)cc1NC(=O)c1cc(F)cc(C(F)(F)F)c1 [I-268]	0.5 to 1
CNC(=O)c1cnc(N2CCC(C)c3ccccc32)c(NC(=O)c2cc(F)cc(C(F)(F)F)c2)c1 (stereo not drawn) [I-282]	1 to 10
Cc1ccccc1Nc1ncc(-c2cnn(C)c2)cc1NC(=O)c1ccnc2c1ccn2C [I-98]	10 to 100
Cc1ccccc1Nc1ccncc1NC(=O)c1csc2ccccc12 [I-344]	1 to 10
Cc1ccccc1N[C@H]1CCN(C(=O)CC2CCOCC2)C[C@H]1C(=O)Nc1cc(F)cc(C(F)(F)F)c1 (racemic) [I-251]	10 to 100
Cc1ccccc1Nc1ncc(-c2ccn[nH]2)cc1NC(=O)c1cc(F)cc(C(F)(F)F)c1 [I-74]	1 to 10
CNC(=O)c1cnc(Nc2ccccc2C)c(NC(=O)c2cc(F)cc(C3CC3)c2)c1 [I-188]	1 to 10
Cc1ccccc1[C@@H]1Nc2ccccc2[C@H]1CNC(=O)c1cc(F)cc(C(F)(F)F)c1 (racemic) [I-808, 3-fluoro-N-(((2R,3S)-2-(o-tolyl)indolin-3-yl)methyl)-5-(trifluoromethyl)benzamide]	10 to 100
CNC(=O)c1cnc(Nc2ccccc2C)c(NC(=O)CC2OCCc3ccccc32)c1 (stereo not drawn) [I-387]	10 to 100
CNC(=O)c1cnc(N2CC3CCCN3CC2C)c(NC(=O)c2cc(F)cc(C(F)(F)F)c2)c1 (stereo not drawn) [I-202]	10 to 100
CNC(=O)N1CC[C@H](Nc2ccccc2C)[C@H](C(=O)Nc2cc(F)cc(C(F)(F)F)c2)C1 (racemic) [I-203]	10 to 100
Cc1ccccc1Nc1ncc(N)cc1NC(=O)c1cc(F)cc(C(F)(F)F)c1 [I-70]	1 to 10
CNC(=O)c1cnc(Nc2ccnc(C)c2)c(NC(=O)c2cc(F)cc(C(F)(F)F)c2)c1 [I-200]	10 to 100

Same assay, conditions: ADP-Glo biochemical PIK3CA kinase assay

Compound	IC50 [µM]
CNC(=O)c1cnc(Nc2ccccc2C)c(NC(=O)c2ccc(C#N)c(C(F)(F)F)c2)c1 [I-710]	0.5 to 1
CNC(=O)c1cnc(Nc2ccccc2C)c(NC(=O)C(C)n2ccccc2=O)c1 (stereo not drawn) [I-428]	10 to 100
COC(=O)CCS(=O)(=O)c1cnc(Nc2ccccc2C)c(NC(=O)c2cc(F)cc(C(F)(F)F)c2)c1 [I-728]	1 to 10
CNC(=O)c1cnc(Nc2ccccc2C)c(NC(=O)CCc2ccccc2F)c1 [I-437]	10 to 100
Cc1ccccc1Nc1ncc(C(=O)N2CC(CF)C2)cc1NC(=O)c1csc2ccccc12 [I-628]	1 to 10
Cc1ccccc1Nc1ncc(C(=O)N2CC(C(=O)O)C2)cc1NC(=O)c1csc2ccccc12 [I-600]	1 to 10
CNC(=O)c1cnc(Nc2ccccc2C)c(NC(=O)c2ccc3c(c2)COC3)c1 [I-447]	10 to 100
CNC(=O)c1cnc(Nc2ccc3c(c2)OCC3)c(NC(=O)c2csc3ccccc23)c1 [I-738]	1 to 10
O=C(NCc1ccccc1CN1CCCCC1)c1cc(F)cc(C(F)(F)F)c1 [I-785]	10 to 100
CNC(=O)c1cnc(Nc2ccccc2C)c(NC(=O)c2cc(C)cc(C#N)c2)c1 [I-556]	1 to 10
CNC(=O)c1cnc(Nc2cnccc2C)c(NC(=O)c2csc3ccccc23)c1 [I-730]	1 to 10
CC(NC(=O)c1cnc(N)c(NC(=O)c2csc3ccccc23)c1)c1cn[nH]c1 (stereo not drawn) [I-690]	1 to 10
Cc1ccccc1Nc1ncc(C(=O)NCc2ncccn2)cc1NC(=O)c1csc2ccccc12 [I-586]	0.5 to 1
CNC(=O)c1cnc(Nc2c3c(nn2C)CCCC3)c(NC(=O)c2csc3ccccc23)c1 [I-732]	1 to 10
Cc1ccccc1Nc1ncc(C(=O)Nc2cnn3cccc(F)c23)cc1NC(=O)c1csc2ccccc12 [I-500]	10 to 100
Cc1ccccc1Nc1ncc(C(=O)NC2CCOc3ccccc32)cc1NC(=O)c1csc2ccccc12 (stereo not drawn) [I-487]	10 to 100
CNC(=O)c1cnc(Nc2ccccc2C)c(NC(=O)c2ccc3cnccc3c2)c1 [I-648]	1 to 10
CNC(=O)c1cnc(Nc2ccccc2C)c(NC(=O)C2(c3cccc(F)c3)CC2)c1 [I-475]	1 to 10
Nc1cnc(Nc2cc(F)ccc2Cl)c(NC(=O)c2nsc3ccccc23)c1 [I-784]	10 to 100
CNC(=O)c1cnc(Nc2ccccc2C)c(NC(=O)c2ccc(C(F)(F)F)n2C)c1 [I-524]	10 to 100
CNC(=O)c1cnc(Nc2ccccc2C)c(NC(=O)C2(c3cccc(Cl)c3)CC2)c1 [I-513]	10 to 100
Cc1ccccc1Nc1ncc(C(=O)NCc2cn(C)nc2C)cc1NC(=O)c1cc(F)cc(C(F)(F)F)c1 [I-746]	1 to 10
Cc1cc(NC(=O)c2cc(F)cc(C(F)(F)F)c2)n(-c2ccccc2F)n1 [I-789]	1 to 10
O=C(Nc1cc(C2CC2)nn1-c1ccccc1)c1cc(F)cc(C(F)(F)F)c1 [I-786]	10 to 100
CNC(=O)c1cnc(Nc2ccccc2C)c(NC(=O)c2nn(C(C)C)c3ccccc23)c1 [I-457]	10 to 100
Cc1ccccc1Nc1ncc(C(=O)N[C@@H]2C3CCC(C3)[C@H]2C(=O)O)cc1NC(=O)c1csc2ccccc12 (stereo partly drawn) [I-559]	1 to 10
CNC(=O)c1cnc(Nc2ccccc2C)c(NC(=O)c2[nH]c3ccccc3c2Br)c1 [I-522]	10 to 100
CNC(=O)c1cnc(Nc2ccccc2C)c(NC(=O)c2cc(=O)[nH]c3ccccc23)c1 [I-448]	10 to 100
CNC(=O)c1cnc(Nc2ccc3c(c2)COC3)c(NC(=O)c2csc3ccccc23)c1 [I-733]	1 to 10
O=C(Nc1cc(C2CC2)nn1-c1ccccc1F)c1cc(F)cc(C(F)(F)F)c1 [I-788]	10 to 100
